Assay results reported in publication PMC9854187, “A novel Mcl-1 inhibitor synergizes with venetoclax to induce apoptosis in cancer cells” (Molecular Medicine, 2023).

Biological target: T1, Mcl-1 (Homo sapiens, UniProt Q07820)
T1 construct: gene MCL1; recombinant GST-Mcl-1
Experiment: fluorescence polarization with recombinant GST-Mcl-1; supported by GST pull-down showing disruption of Mcl-1/Bak
Format: binding

T1 sequence (Q07820 whole entry): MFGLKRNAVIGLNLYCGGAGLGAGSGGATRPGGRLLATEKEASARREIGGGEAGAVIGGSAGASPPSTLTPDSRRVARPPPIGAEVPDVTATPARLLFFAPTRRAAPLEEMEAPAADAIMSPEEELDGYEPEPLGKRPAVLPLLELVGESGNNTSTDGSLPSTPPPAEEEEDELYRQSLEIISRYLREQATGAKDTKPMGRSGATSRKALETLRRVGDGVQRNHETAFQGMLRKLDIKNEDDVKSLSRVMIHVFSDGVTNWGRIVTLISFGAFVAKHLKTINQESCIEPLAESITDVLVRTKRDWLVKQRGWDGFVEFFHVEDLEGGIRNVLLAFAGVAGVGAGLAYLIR

Q: With Cc1cc(Cl)ccc1NC(=O)C(=O)C(C(=O)c1ccc2ccccc2c1)C1OC(=O)c2ccccc21 (stereo not shown) [MI-238] as the compound, how does the Ki read?
A: 450 ± 50 nM
